Tests used:
[1] = tested on: Puccinia recondita f. sp. tritici (PUCCRT); assay: Fungicidal activity, wheat leaf rust (PUCCRT), greenhouse wheat plants; type: in vivo; conditions: One-Day Protectant, wheat (variety Yuma)
[2] = tested on: Mycosphaerella graminicola; anamorph: Septoria tritici (SEPTTR); assay: Fungicidal activity, leaf blotch of wheat (SEPTTR), greenhouse wheat plants; type: in vivo; conditions: wheat (variety Yuma)
Description: Leaf Blotch of Wheat (Mycosphaerella graminicola; anamorph: Septoria tritici; Bayer code […]): Wheat plants (variety Yuma) were grown from seed in a greenhouse in 50% mineral soil/50% soil-less Metro mix until the first leaf was fully emerged, with 7-10 seedlings per pot. These plants were inoculated with an aqueous spore suspension of […] either prior to or after fungicide treatments. After inoculation the plants were kept in 100% relative humidity (one day in a dark dew chamber followed by two to three days in a lighted dew chamber) to permit spores to germinate and infect the leaf. The plants were then transferred to a greenhouse for disease to develop. The following table presents the activity of typical compounds of the present disclosure when evaluated in these experiments. The effectiveness of the test compounds in controlling disease was determined by assessing the severity of disease on treated plants, then converting the severity to percent control based on the level of disease on untreated, inoculated plants. • In each case of Table II the rating scale is as follows: […]

[3] = tested on: Cochliobolus sativus (COCHSA); assay: Fungicidal activity, spot blotch of barley (COCHSA), greenhouse barley plants; type: in vivo; conditions: One-Day Protectant, barley (variety Harrington)
Description: Spot Blotch of Barley (Cochliobolus sativus: anamorph Helmithosporium sativum; Bayer code COCHSA): Barley plants (variety Harrington) were grown from seed in a greenhouse in soil-less Metro mix until the first leaf was fully emerged, with 7-10 seedlings per pot. These plants were inoculated with an aqueous spore suspension of COCHSA prior to fungicide treatments. After inoculation the plants were kept in 100% relative humidity one day to permit spores to germinate and infect the leaf. The plants were then transferred to a greenhouse for disease to develop. The following table presents the activity of typical compounds of the present disclosure when evaluated in these experiments. The effectiveness of the test compounds in controlling disease was determined by assessing the severity of disease on treated plants, then converting the severity to percent control based on the level of disease on untreated, inoculated plants. • In each case of Table II the rating scale is as follows: […]

## CC(C)C1C2CCC1c1c(NC(=O)c3nccnc3C(F)(F)F)cccc12 (centres unmarked) [Compound 9, 3-Trifluoromethyl-pyrazine-2-carboxylic acid (9-isopropyl-1,2,3,4-tetrahydro-1,4-methano-naphthalen-5-yl)-amide]
[1]
  PUCCRT 200 PPM 1DP (disease control rating): A (76-100)
other
  melting point: 173 to 177 °C
[2]; One-Day Protectant
  SEPTTR 200 PPM 1DP (disease control rating): A (76-100)
[2]; Three-Day Curative
  SEPTTR 200 PPM 3DC (disease control rating): B (51-75)
[3]
  COCHSA 200 PPM 1DP (disease control rating): A (76-100)
